Laboratory results reported in article PMC6805867, “Amphiphilic Triazine Polymer Derivatives as Antibacterial And Anti-atopic Agents in Mice Model” (Scientific Reports, 2019).

How the values were obtained:
[1] = tested on: Pseudomonas aeruginosa (KCTC 1637); experiment: Antimicrobial activity, broth microdilution MIC; assay type: cell-based; settings: 2 × 10^6 CFU/mL in 1% peptone, 37 °C, 18–22 h, 100% inhibition of growth, performed three times
Experimental: (§1) The bacterial strains employed in the experiment were Escherichia coli (KCTC 1682), Pseudomonas aeruginosa (KCTC 1637), Bacillus subtilis (KCTC 3068), Staphylococcus aureus (KCTC 1621), three methicillin-resistant Staphylococcus aureus (CCARM 3089, 3090 and 3095), two multidrug-resistant Pseudomonas aeruginosa (CCARM 2095 and 2109) and vancomycin-resistant Enterococcus faecium (ATCC 51559). The antimicrobial activities of polymers were determined by the broth microdilution method, and the procedures were used as previously reported. Briefly, bacteria grown to mid-logarithmic phase in LB broth were diluted to 2 × 10^6 CFU/mL in 1% peptone and added to serial two-fold dilutions of different polymers ranging from 1 to 64 μg/mL. The plates were incubated in a shaking incubator at 37 °C for 18–22 h. The minimum inhibitory concentration (MIC) was determined by confirming the absence of bacterial growth both visually and spectrophotometrically by OD600 readings taken by a microplate ELISA reader (Molecular Devices, Sunnyvale, CA, USA). All measurements were performed three times.

[2] = tested on: Bacillus subtilis (KCTC 3068); experiment: Antimicrobial activity, broth microdilution MIC; assay type: cell-based; settings: 2 × 10^6 CFU/mL in 1% peptone, 37 °C, 18–22 h, 100% inhibition of growth, performed three times
Experimental: as §1

[3] = tested on: Staphylococcus aureus (KCTC 1621); experiment: Antimicrobial activity, broth microdilution MIC; assay type: cell-based; settings: 2 × 10^6 CFU/mL in 1% peptone, 37 °C, 18–22 h, 100% inhibition of growth, performed three times
Experimental: as §1

[4] = tested on: Escherichia coli (KCTC 1682); experiment: Antimicrobial activity, broth microdilution MIC; assay type: cell-based; settings: 2 × 10^6 CFU/mL in 1% peptone, 37 °C, 18–22 h, 100% inhibition of growth, performed three times
Experimental: as §1

[5] = tested on: dorsal skin of AD-induced BALB/c mice; experiment: DNCB-induced AD model, histological observations (H&E, toluidine blue); assay type: in vivo; settings: versus AD mice; for decrease in both epidermal and dermal thickness: 200 μg/mL topical daily for 18 days, H&E staining; for infiltration of mast cells in the skin lesions: topical application, toluidine blue staining
Experimental: (§2) As described in our previous article, the 7-week-old female BALB/c mice were divided into seven groups (n = 8 per group): Control (Con) group, TZP3 200 μg/mL (TZP3) group, and TZP5 200 μg/mL (TZP5) group, DNCB-sensitized only (AD) group, DNCB-sensitized + TZP3 200 μg/mL (AD + TZP3) group, DNCB-sensitized + TZP5 200 μg/mL (AD + TZP5) group, DNCB-sensitized + Dermatop (Sanofi, Korea) 0.25% (AD + Dermatop) group. Dermatop was used as a positive control treatment. For the first induction of AD in the BALB/c mice, the backs of the mice were shaved and challenged with 200 μL of 1% 2,4-dinitrochlorobenzene(DNCB) in acetone/olive oil (3:1) one time (day−4). After 4 days from the induction, 0.5% DNCB was painted onto the backs of the mice every two days (day 2, 4, 6, 8, 10, 12, 14, 16 and 18). Concentrations of 200 μg/mL TZP3 or TZP5 in 20 μL of PBS were applied to the dorsal skin once daily for 18 days.
As described in our previous article, the skin tissues of the mice were […] in 10% neutral buffered formalin (NBF) for 24 h and embedded in white paraffin. Serial paraffin‐sections with 5 µm thickness, were prepared and stained with hematoxylin-eosin (H&E) or toluidine blue. The thickness of the epidermis and dermis was measured under a microscope. The number of mast cells stained by toluidine blue in the upper dermis in a field of 0.25 mm × 0.25 mm (0.0625 mm^2) was counted under the microscope. The cells in five fields (0.3125 mm^2 in total) of the upper dermis were counted, and an estimate of the number of cells per 1 mm^2 was made for each mouse specimen.

[6] = tested on: Methicillin-resistant Staphylococcus aureus (MRSA) CCARM 3090; assay type: cell-based; settings: broth microdilution, 37 °C, 18–22 h
Experimental: as §1

[7] = tested on: Multidrug-resistant Pseudomonas aeruginosa (MDRPA) CCARM 2095; assay type: cell-based; settings: broth microdilution, 37 °C, 18–22 h
Experimental: as §1

[8] = tested on: Methicillin-resistant Staphylococcus aureus (MRSA) CCARM 3095; assay type: cell-based; settings: broth microdilution, 37 °C, 18–22 h
Experimental: as §1

[9] = tested on: Multidrug-resistant Pseudomonas aeruginosa (MDRPA) CCARM 2109; assay type: cell-based; settings: broth microdilution, 37 °C, 18–22 h
Experimental: as §1

[10] = tested on: Methicillin-resistant Staphylococcus aureus (MRSA) CCARM 3089; assay type: cell-based; settings: broth microdilution, 37 °C, 18–22 h
Experimental: as §1

HaCaT cells = experiment: Cytotoxicity, MTT assay; assay type: cell-based; settings: 24 h, maximum tested concentration (20 µg)
Experimental: page 6: Figure S2. Effect of TZP3 and TZP5 on β-hexosaminidase release in RBL-2H3 cells Cytotoxicity evaluation of TZP3 and TZP5 on HaCaT cells Figure S3: Cytotoxicity evaluation of TZP3 […] and TZP5 (b) on HaCaT cells. TZP3 and TZP5 were treated with HaCaT cells in various concentrations for 24 h followed by MTT assay, and absorbance was measured. Cell viability was calculated as the relative absorbance. […]

trypsin = experiment: Protease stability, radial diffusion assay after tryptic digestion; assay type: in vitro ADME; settings: trypsin 0.2 μg/mL in PBS, 37 °C (24 h, 4 h elsewhere in the source), clearance zones against E.coli and S.aureus
Experimental: The protease stability of triazine based polymers (TZP3 and TZP5) was performed by the radial diffusion assay as described previously. Briefly, a bacteria suspension (2×10^6 CFU/mL in LB) was mixed with 0.7% agarose. This mixture was poured into a 10-cm petri dish, and it dispersed rapidly. […] The reaction was stopped by freezing with liquid nitrogen, after which 10 μL aliquots were placed in each circle paper, put on the agarose plates, and then incubated at 37 °C overnight. The diameters of the bacterial clearance zones surrounding the circle paper were measured for the quantitation of inhibitory activities.

[11] = tested on: AD-like skin lesion in BALB/c mice; experiment: DNCB-induced AD-like skin lesion model, dermatitis score; assay type: in vivo; settings: 200 μg/mL in 20 μL PBS on dorsal skin once daily for 18 days, versus AD mice, n = 8
Experimental: as §2
The severity of dermatitis on the dorsal skin lesions was evaluated three times per week, according to a slight modification of the criteria described previously. The development of (1) erythema/hemorrhage, (2) scarring/dryness, (3) edema, and (4) excoriation/erosion was scored as 0 (none), 1 (mild), 2 (moderate), or 3 (severe). The sum of the individual scores was defined as the dermatitis score.

[12] = tested on: serum total IgE and IgG2a; experiment: DNCB-induced AD model, serum immunoglobulins by ELISA; assay type: in vivo, BALB/c mice; settings: versus AD-induced mice
Experimental: as §2
Blood was collected from each experimental group via cardiac puncture and was centrifuged at 3000 rpm and 4 °C for 20 min to obtain the serum. The levels of IgE, IgG2a were measured with an enzyme-linked immunosorbent assay kit (Bethyl Laboratories, Montgomery, TX, USA), following the manufacturer’s instructions.

Compound | MIC Pseudomonas aeruginosa (KCTC 1637) [1] | MIC Bacillus subtilis (KCTC 3068) [2] | MIC Staphylococcus aureus (KCTC 1621) [3] | MIC Escherichia coli (KCTC 1682) [4] | decrease in both epidermal and dermal thickness [5] | infiltration of mast cells in the skin lesions [5] | MIC MRSA CCARM 3090 [6] | MIC MDRPA CCARM 2095 [7] | MIC MRSA CCARM 3095 [8] | MIC MDRPA CCARM 2109 [9] | MIC MRSA CCARM 3089 [10] | cytotoxicity in HaCaT cells (HaCaT cells) | antibacterial activity after incubation with trypsin (trypsin) | dermatitis score [11] | serum level of total IgE [12] | serum level of total IgG2a [12]
NCCCN(CCCN)c1nc(N)nc(NCCNc2nc(Cl)nc(N(Cc3ccccc3)Cc3ccccc3)n2)n1 [TZP3] | 8 [13.5] μg/mL | 2 [3.4] μg/mL | 4 [6.8] μg/mL | 4 [6.8] μg/mL | more than 50% | significantly suppressed | 8 [13.5] µg/mL | 8 [13.5] µg/mL | 8 [13.5] µg/mL | 8 [13.5] µg/mL | 8 [13.5] µg/mL | didn’t show significant cytotoxicity | did not lose any of their antibacterial effects | significantly decreased score | significantly reduced | significantly reduced
NCCCN(CCCN)c1nc(Cl)nc(NCCNc2nc(NCCNc3nc(N)nc(NCCC(c4ccccc4)c4ccccc4)n3)nc(N(CCCN)CCCN)n2)n1 [TZP5] | 4 [3] μg/mL | 2 [1.5] μg/mL | 4 [3] μg/mL | 4 [3] μg/mL | more than 50% | significantly suppressed | 4 [3] µg/mL | 8 [6] µg/mL | 4 [3] µg/mL | 8 [6] µg/mL | 4 [3] µg/mL | didn’t show significant cytotoxicity | did not lose any of their antibacterial effects | significantly decreased score | significantly reduced | significantly reduced
